The target in the test is T1, human beta 2 adrenoreceptor (Homo sapiens, UniProt P07550).
T1 construct: expressed in transfected cells; host or cells: frog melanophores
Put plainly: frog melanophores transfected with human beta 2 adrenoreceptor, pigment dispersal (light transmittance). It counts as cell-based. To be noted: melatonin-induced pigment aggregation, change in light transmittance, read-out: IC50 values at the human beta 2 adrenoreceptor (beta 2 agonist activity). The protocol:
The potencies of the aforementioned compounds were determined using frog melanophores transfected with the human beta 2 adrenoreceptor. The cells were incubated with melatonin to induce pigment aggregation. Pigment dispersal was induced by compounds acting on the human beta 2 adrenoreceptor. The beta 2 agonist activity of test compounds was assessed by their ability to induce a change in light transmittance across a melanophore monolayer (a consequence of pigment dispersal).

T1 sequence (P07550 whole entry): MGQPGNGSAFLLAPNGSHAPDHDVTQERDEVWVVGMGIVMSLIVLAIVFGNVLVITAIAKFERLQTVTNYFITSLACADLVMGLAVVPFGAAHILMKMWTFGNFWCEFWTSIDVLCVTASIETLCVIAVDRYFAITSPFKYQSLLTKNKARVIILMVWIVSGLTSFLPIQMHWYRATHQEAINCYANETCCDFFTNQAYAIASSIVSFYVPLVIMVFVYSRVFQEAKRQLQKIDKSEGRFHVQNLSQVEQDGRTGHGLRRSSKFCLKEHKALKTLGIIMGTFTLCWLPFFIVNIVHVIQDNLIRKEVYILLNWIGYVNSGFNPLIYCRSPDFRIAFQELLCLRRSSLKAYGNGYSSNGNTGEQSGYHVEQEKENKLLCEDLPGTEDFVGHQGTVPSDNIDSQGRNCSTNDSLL

As to `CC(C)(C)NS(=O)(=O)c1cccc(CCCCOCCCCCCNC[C@H](O)c2ccc(O)c(NC=O)c2)c1` [Example 2, N-(tert-Butyl)-3-(4-{[6-({(2R)-2-[3-(formylamino)-4-hydroxyphenyl]-2-hydroxyethyl}amino)hexyl]oxy}butyl)benzenesulfonamide], the IC50 was under 1000 nM.
Consider `NS(=O)(=O)c1cccc(CCCCOCCCCCCNC[C@H](O)c2ccc(O)c(NC=O)c2)c1` [Example 1, 3-(4-{[6-({(2R)-2-[3-(Formylamino)-4-hydroxyphenyl]-2-hydroxyethyl}amino)hexyl]oxy}butyl)benzenesulfonamide compound with (2E)-but-2-enedioic acid (2:1)], for which the 50% inhibitory concentration (IC50) was under 1000 nM.

A word on the IC50: it is the concentration that gives 50% inhibition.

For the origin of these results see patent publication US7045658B2, “Formailide derivatives as beta2-adrenoreceptor agonists” (Glaxo Group Limited, priority 2001, dated 2006).
